From US4886806A, “Flavone-3-carboxylic acids compounds and pharmaceutical compositions containing them” (Kali-Chemie Pharma GmbH, priority 1987, dated 1989)

Assays:
[1] = tested on: male mice; test: Determination of the minimum toxic dose; format: in vivo; details: max. dose 300 mg/kg, 24 h
Method: 3. Determination of the minimum toxic dose.
Male mice of 20 to 25 g weight were given maximal doses of 300 mg/kg of test substance per os. The animals were carefully watched over a period of three hours for toxicity symptoms. Over a period of twenty-four hours after administration, all symptoms and deaths were recorded. Associated symptoms were also watched and recorded. If death or strongly toxic symptoms were noted, further mice were given increasingly lower doses. The lowest dose which brought about death or strongly toxic symptoms was reported as the minimum toxic dose.

[2] = tested on: oxygen radical-forming activity of peritoneal exudate cells (PEC) of mice; test: Spontaneous CL and induced CL chemiluminescence test: inhibition of oxygen radical liberation from peritoneal exudate cells (30 min preincubation); format: cell-based; parameters: concentration or dose not given beside the values; details: for Inhibition in vitro of the oxygen radical liberation, Chemiluminescence Test % inhibition, Ind. CL: induced CL, after ZyC3b activation; for Inhibition in vitro of the oxygen radical liberation, Chemiluminescence Test % inhibition, Spnt. CL: spontaneous CL, before ZyC3b
Method: 1. To determine the inhibiting effect on the oxygen radical-forming activity of inflamed cells, the in vitro inhibition of the release of oxygen radicals from activated peritoneal exudate cells (=PEC) of mice was determined in the chemiluminescence (CL) test according to the method of Mueller-Peddinghaus (Int. J. Immunopharmac. 6, 455-466 (1984)). […] The intensity of the chemiluminescence is a measurement of the oxygen radical content in the suspension and thus the degree of activity of the inflamed cells. In this, three functionally different parameters are detected, the spontaneous CL, the induced CL and the peak CL. The spontaneous CL and the induced CL on the one hand and the peak CL on the other hand differ from each other because in the first two parameters the test substances are in contact with the cells for a 30 minute preincubation period before the inflammation irritant is added, whereas with the peak CL the cells are first stimulated, and the test substance is added at the peak of their activity. The measurement of the spontaneous CL thus detects the influence of the test substance on the relative rest activity of inflamed cells, the induced CL represents the effect of the test substances on the activatability of the cells and the inhibition of the peak CL indicates the effect of the test substances on the maximum activity of the inflamed cells. 1.1 Production of PEC suspension used in the test. In order to induce the PEC formation, female mice of 20-25 g body weight were each injected i.p. with 2 ml of a 3% solution of thioglycollate in sterile isotonic sodium chloride solution. Twenty four hours after the thioglycollate injection the cells, which predominantly consisted of polymorphonuclear leucocytes, were recovered by washing out of the abdominal cavity and washed twice. As cell culture medium there was added a commercially available solution under the designation RPMI 1640 (pH 7.2) (produced by Flow Laboratories, […], Germany), which contains 10% fetal calf serum (FCS, produced by Seromed GmbH, Munich, Germany) 18 μmol/l sodium bicarbonate and 2 μmol/l L-glutamine. The cell pellets of four animals each time were resuspended in cell culture medium, collected together and the suspension was made up to 2×10^6 cells per ml with cell culture medium. The cell suspensions were kept under ice cooling until their use the same day. 1.2 Production of the complement opsonized zymosan (=ZyC3 b) suspension used for activation. 200 mg zymosan (glycoprotein mixture isolated from the cell walls of brewer's yeast, Sacchomyces […], produced by Sigma Chemical Co., Munich, Germany) were suspended in 10 ml phosphate buffer solution according to Dulbecco (produced by Flow Laboratories, […], Germany), well stirred and heated for thirty minutes in a water bath to 100° C. After cooling, it was centrifuged for five minutes at 4° C. and at 600 ×g and the supernatant was discarded. The sediment was resuspended in 50 ml human serum and incubated for thirty minutes at 37° C. in a shaking water bath. Then it was centrifuged for five minutes at 600 ×g and 420 C., the supernatant decanted and the sediment washed with phosphate buffer solution. The working suspension of 8×10^-3 g ZyC3 b/ml was produced from the sediment by dilution with phosphate buffer solution (Mueller-Peddinghaus et al., Zbl. Vet. Med. B. 30, 559-575). 1.3 Chemiluminescence (CL) measurement (Peak-CL). […] At the end of this preincubation phase, 100 μl lucigenin were added, and in the course of the subsequent sixteen minute incubation phase the spontaneous CL parameter was determined with two measuring points. Then 100 μl ZyC3 b+100 μl phosphate buffer were added, and during the course of the subsequent twenty-four minute cell activation the induced CL parameter was measured with three measuring points. All measurements were determined twice. The parameters spontaneous CL and induced CL were determined on the same day with two separate cell pools.

[3] = tested on: oxygen radical-forming activity of activated peritoneal exudate cells (PEC) of mice; test: Peak chemiluminescence (CL) test: inhibition of oxygen radical liberation from activated peritoneal exudate cells; format: cell-based; details: Mus musculus, 10^-4 Mol substance/l, added at peak of cell activity, read-out: Inhibition in vitro of the oxygen radical liberation, Chemiluminescence Test % inhibition, Pk. CL
Method: 1. To determine the inhibiting effect on the oxygen radical-forming activity of inflamed cells, the in vitro inhibition of the release of oxygen radicals from activated peritoneal exudate cells (=PEC) of mice was determined in the chemiluminescence (CL) test according to the method of Mueller-Peddinghaus (Int. J. Immunopharmac. 6, 455-466 (1984)). […] The intensity of the chemiluminescence is a measurement of the oxygen radical content in the suspension and thus the degree of activity of the inflamed cells. In this, three functionally different parameters are detected, the spontaneous CL, the induced CL and the peak CL. The spontaneous CL and the induced CL on the one hand and the peak CL on the other hand differ from each other because in the first two parameters the test substances are in contact with the cells for a 30 minute preincubation period before the inflammation irritant is added, whereas with the peak CL the cells are first stimulated, and the test substance is added at the peak of their activity. The measurement of the spontaneous CL thus detects the influence of the test substance on the relative rest activity of inflamed cells, the induced CL represents the effect of the test substances on the activatability of the cells and the inhibition of the peak CL indicates the effect of the test substances on the maximum activity of the inflamed cells. 1.1 Production of PEC suspension used in the test. In order to induce the PEC formation, female mice of 20-25 g body weight were each injected i.p. with 2 ml of a 3% solution of thioglycollate in sterile isotonic sodium chloride solution. Twenty four hours after the thioglycollate injection the cells, which predominantly consisted of polymorphonuclear leucocytes, were recovered by washing out of the abdominal cavity and washed twice. As cell culture medium there was added a commercially available solution under the designation RPMI 1640 (pH 7.2) (produced by Flow Laboratories, […], Germany), which contains 10% fetal calf serum (FCS, produced by Seromed GmbH, Munich, Germany) 18 μmol/l sodium bicarbonate and 2 μmol/l L-glutamine. The cell pellets of four animals each time were resuspended in cell culture medium, collected together and the suspension was made up to 2×10^6 cells per ml with cell culture medium. The cell suspensions were kept under ice cooling until their use the same day. 1.2 Production of the complement opsonized zymosan (=ZyC3 b) suspension used for activation. 200 mg zymosan (glycoprotein mixture isolated from the cell walls of brewer's yeast, Sacchomyces […], produced by Sigma Chemical Co., Munich, Germany) were suspended in 10 ml phosphate buffer solution according to Dulbecco (produced by Flow Laboratories, […], Germany), well stirred and heated for thirty minutes in a water bath to 100° C. After cooling, it was centrifuged for five minutes at 4° C. and at 600 ×g and the supernatant was discarded. The sediment was resuspended in 50 ml human serum and incubated for thirty minutes at 37° C. in a shaking water bath. Then it was centrifuged for five minutes at 600 ×g and 420 C., the supernatant decanted and the sediment washed with phosphate buffer solution. The working suspension of 8×10^-3 g ZyC3 b/ml was produced from the sediment by dilution with phosphate buffer solution (Mueller-Peddinghaus et al., Zbl. Vet. Med. B. 30, 559-575). 1.3 Chemiluminescence (CL) measurement (Peak-CL). The PEC suspension was divided into samples of 100 μl each, placed in test tubes, and these were incubated for ten minutes at a temperature of 3720 C. in a measurement device (Chemiluminescence analyzer, Laboratorium Prof. Berthold, Wildbad, Germany). Then in order to amplify the chemiluminescence, 100 μl lucigenin solution was added (final concentration 1.54×10^-4 mol/l) and incubated for 16 more minutes. The cells were then activated by the addition of 100 μl of the ZyC3 b suspension produced as described in section 1.2 plus 100 μl phosphate buffer solution. […]

[4] = tested on: carrageenin foot edema in male Wistar rats; test: Inhibition of carrageenin foot edema in rats (Winter et al.); format: in vivo; details: Rattus norvegicus, 2 h after irritant
Method: A similar volume of isotonic sodium chloride solution was injected in the left hind foot. The volume of the each rat's foot was measured plethysmometrically both before and two hours after administration of the irritant, and the swelling of the foot volume after the carrageenin application was compared to the foot which was treated only with sodium chloride solution The inhibition of edema formation by the test substances in the treated animals was compared in percentage terms with the animals of the untreated control group.

| SMILES | Minimal toxic dose mg/kg mouse p.o. [1] [mg/kg] | Inhibition in vitro of the oxygen radical liberation, Chemiluminescence Test % inhibition, Ind. CL [2] [%] | Inhibition in vitro of the oxygen radical liberation, Chemiluminescence Test % inhibition, Spnt. CL [2] [%] | inhibition at 100 µM (stock) [3] [%] | inhibition in vivo at 215 µmol/kg ([4]; ip, 215 μmol/kg i.p.) [%] | inhibition in vivo at 215 µmol/kg ([4]; po, 215 μmol/kg p.o.) [%] | inhibition in vivo at 100 µmol/kg ([4]; po, 100 μmol/kg p.o.) [%] |
| --- | --- | --- | --- | --- | --- | --- | --- |
| COc1cc(-c2oc3ccccc3c(=O)c2C(=O)OCCN2CCN(c3ccccn3)CC2)cc(OC)c1OC [Example 47] | 100 | 76 | 78 | 70 | – | – | – |
| O=C(c1c(-c2ccccc2)oc2ccccc2c1=O)N1CC[N+]([O-])(Cc2ccccc2)CC1 [Example 5, 3-[(4-benzylpiperazin-1-yl)-carbonyl]-flavone N-oxide] | > 300 | 25 | 49 | 12 | – | – | – |
| CCN(CC)CCNC(=O)c1c(-c2ccccc2)oc2ccccc2c1=O [Example 22b] | 300 | 43 | 67 | 25 | – | – | – |
| COc1cc(-c2oc3ccccc3c(=O)c2C(=O)OCCN2CCCC2)cc(OC)c1OC [Example 49] | 300 | 64 | 86 | 41 | – | – | – |
| COc1ccc(-c2oc3ccccc3c(=O)c2C(=O)N2CCN(C)CC2)cc1 [Example 28] | > 300 | 29 | 54 | 5 | – | – | – |
| CCC(=O)Oc1cc(-c2oc3ccccc3c(=O)c2C(=O)N2CCN(c3ccccn3)CC2)cc(OC(=O)CC)c1OC(=O)CC [Example 56] | – | 70 | 52 | 37 | – | – | – |
| O=C(NC1CCN(Cc2ccccc2)CC1)c1c(-c2ccccc2)oc2ccccc2c1=O [Example 18b] | 300 | 50 | 30 | 41 | – | – | – |
| O=C(NCCCCN1CCN(Cc2ccccc2)CC1)c1c(-c2ccccc2)oc2ccccc2c1=O [Example 23] | 300 | 88 | 95 | 63 | – | – | – |
| COc1cc(-c2oc3ccccc3c(=O)c2C(=O)NCCCN2CCOCC2)cc(OC)c1OC [Example 46] | > 300 | 25 | 52 | 11 | – | – | – |
| O=C(NCCCCN1CCN(c2ncccn2)CC1)c1c(-c2ccccc2)oc2ccccc2c1=O [Example 25] | – | – | – | – | 58 | 25 | – |
| COc1cc(-c2oc3ccccc3c(=O)c2C(=O)NCCCCN2CCN(c3ccccn3)CC2)cc(OC)c1OC [Example 6b, 3',4',5'-Trimethoxy-3-{4-[4-(2-pyridyl)-piperazin-1-yl]-butylaminocarbonyl}flavone] | – | – | – | – | 75 | – | – |
| O=C(NCCN1CCCC1)c1c(-c2ccccc2)oc2ccccc2c1=O [Example 20b] | 100 | 43 | 72 | 27 | – | – | – |
| CCCCCCCCCCCCCCCCOc1ccc(-c2oc3ccccc3c(=O)c2C(=O)N2CCN(Cc3ccccc3)CC2)cc1 [Example 36] | – | – | – | – | – | 30 | – |
| CN1CCN(C(=O)c2c(-c3ccccc3)oc3ccccc3c2=O)CC1 [Example 16a] | – | – | – | – | – | – | 20 |
| COc1cc(-c2oc3ccccc3c(=O)c2C(=O)NCCCC[N+]2([O-])CC[N+]([O-])(Cc3ccccc3)CC2)cc(OC)c1OC (centres unmarked) [Example 52] | – | – | – | – | 53 | – | – |
| O=C(c1c(-c2cc(O)c(O)c(O)c2)oc2ccccc2c1=O)N1CCN(c2ccccn2)CC1 [Example 10b, 3',4',5'-Trihydroxy-3-{[4-(2-pyridyl)-piperazin-1-yl]-carbonyl}flavone] | – | – | – | – | 35 | 30 | – |
